Results taken from US11590131B2, “Compositions and methods for treating galactosemia” (Applied Therapeutics, Inc., priority 2017, dated 2023).
Entries after “also recorded” stand apart in the source; their conditions may differ.

What was measured:
Assay type in all cases: in vivo, rat
GALT-null rats [1] = experiment: Digital photographic quantification of cataracts in GALT null rats
Text: Rats, with impaired GALT activity due to genetic modification (GALT null), were used as a model of galactosemia. This rat model mirrors human classic galactosemia in some important ways. The rats develop physical characteristics including cataracts follow exposure to galactose, growth abnormalities, and neurological/cognitive abnormalities, which mirror abnormalities in human patients and can be quantified. The rats also have biochemical characteristics that mirror human disease including elevated levels of galactose and galactose metabolites, including galactitol and Gal1), in blood and tissues. Rats were generated from heterozygote crosses (heterozygous M3 GALT null strain representing classic galactosemia). […] Just before each feeding an aliquot of drug was re-suspended in formula, mixed well, and pipetted into individual tubes to be fed to the pups (volume calculated per pup weight measured that morning). […] In the first part of the study, cataracts were scored visually by a blinded rater on a 3 point scale, with zero being no cataracts present (absent), 1 being mild, 2 being moderate and 3 being severe cataracts present. In the second part of the study, eyes were dissected after euthanization, photographed via digital camera, and cataracts were quantified via software

GALT-null rats [2] = experiment: Qualitative visual scoring of cataracts (0-3 scale) in GALT null rats
Text: Rats, with impaired GALT activity due to genetic modification (GALT null), were used as a model of galactosemia. This rat model mirrors human classic galactosemia in some important ways. The rats develop physical characteristics including cataracts follow exposure to galactose, growth abnormalities, and neurological/cognitive abnormalities, which mirror abnormalities in human patients and can be quantified. The rats also have biochemical characteristics that mirror human disease including elevated levels of galactose and galactose metabolites, including galactitol and Gal1), in blood and tissues. Rats were generated from heterozygote crosses (heterozygous M3 GALT null strain representing classic galactosemia). […] Aldose reductase inhibitor (Compound A or Compound B), suspended in Gerber formula, was administered orally at about 12-hour intervals (BID) at 1 mg inhibitor/gram pup weight (=1000 mg/kg) for each dose. Before use, drug was stored at −20° C. in a bottle or tubes wrapped in aluminum foil. Just before each feeding an aliquot of drug was re-suspended in formula, mixed well, and pipetted into individual tubes to be fed to the pups (volume calculated per pup weight measured that morning). All placebo and drug tubes of formula were warmed to 37° C. immediately before feeding. Placebo and drug were fed to pups by hand using a syringe and tubing. Pups receiving drug also were fed a small additional volume of Gerber formula that had been used to wash the tube and syringe immediately after the drug feeding. To motivate eating, pups were removed from their mother (to prevent nursing) and maintained in nests in a humidified incubator for about 2 hours at 35-37° C. prior to each feeding. […] In the first part of the study, cataracts were scored visually by a blinded rater on a 3 point scale, with zero being no cataracts present (absent), 1 being mild, 2 being moderate and 3 being severe cataracts present. In the second part of the study, eyes were dissected after euthanization, photographed via digital camera, and cataracts were quantified via software

GALT-null rats [3] = experiment: Metabolite levels (galactitol, galactose, Gal1P) by HPLC in liver, brain and plasma of GALT null rats
Text: Rats, with impaired GALT activity due to genetic modification (GALT null), were used as a model of galactosemia. This rat model mirrors human classic galactosemia in some important ways. The rats develop physical characteristics including cataracts follow exposure to galactose, growth abnormalities, and neurological/cognitive abnormalities, which mirror abnormalities in human patients and can be quantified. The rats also have biochemical characteristics that mirror human disease including elevated levels of galactose and galactose metabolites, including galactitol and Gal1), in blood and tissues. Rats were generated from heterozygote crosses (heterozygous M3 GALT null strain representing classic galactosemia). […] Aldose reductase inhibitor (Compound A or Compound B), suspended in Gerber formula, was administered orally at about 12-hour intervals (BID) at 1 mg inhibitor/gram pup weight (=1000 mg/kg) for each dose. Before use, drug was stored at −20° C. in a bottle or tubes wrapped in aluminum foil. Just before each feeding an aliquot of drug was re-suspended in formula, mixed well, and pipetted into individual tubes to be fed to the pups (volume calculated per pup weight measured that morning). All placebo and drug tubes of formula were warmed to 37° C. immediately before feeding. Placebo and drug were fed to pups by hand using a syringe and tubing. Pups receiving drug also were fed a small additional volume of Gerber formula that had been used to wash the tube and syringe immediately after the drug feeding. To motivate eating, pups were removed from their mother (to prevent nursing) and maintained in nests in a humidified incubator for about 2 hours at 35-37° C. prior to each feeding. Separate syringes were used for placebo and drug. Pups were wrapped in fleece during feeding, which lasted about 2-5 minutes each. Lysates for metabolite analysis were prepared as follows: 50-100 mg pieces of previously frozen liver or brain were homogenized by grinding for 30 seconds using a Teflon micropestle and handheld micropestle motor (Kimble Chase Life Science and Research Products LLC) in 125 μl ice-cold HPLC-grade water. Metabolites were separated and quantified by HPLC (See, e.g., Daenzer, et al. Dis. Model Mech. 2016, 9(11):1375-1382)). Galactitol, inositol, and glucose were quantified using the same HPLC conditions described to quantify galactose by (Daenzer, 2016). Metabolite levels were normalized to the total area of peaks detected by the relevant column and elution run for that sample, minus the peaks that most distinguished homozygous M3/M3 samples from controls. Specifically, metabolites separated on the MA1 column (galactitol, inositol, galactose and glucose) were normalized to total peak area minus galactose and galactitol, and metabolites separated on the PA10 column (galactose-1P) were normalized to total peak area minus galactose and galactose-1P.

O=C(O)Cc1nn(Cc2nc3cc(C(F)(F)F)ccc3s2)c(=O)c2nccnc12 [Compound A]
cataracts (qualitative initial study and digitally quantified follow-on study) (GALT-null rats [1]; GALT null rats, 1,000 mg/kg BID or 250 mg/kg BID in follow-on study): reduced cataracts
qualitative assessment of cataracts (scale of 0-3) (GALT-null rats [2]; day nine of life, versus placebo, FIG. 2A): no cataracts
reduction of brain galactitol levels compared to placebo (GALT-null rats [3]; day 9): 40%
reduction of liver galactitol levels compared to placebo (GALT-null rats [3]; day 9): 87%
reduction of brain galactitol levels compared to placebo (GALT-null rats [3]; day 15-18): 57%
reduction of liver galactitol levels compared to placebo (GALT-null rats [3]; day 15-18): 57%

O=C(O)Cc1nn(Cc2cc3cc(C(F)(F)F)ccc3s2)c(=O)c2cscc12 [Compound B]
digital quantitative analysis of cataracts (score) (GALT-null rats [1]; GALT null rats, day 22 of life, FIG. 2B): the same score as wild type rats
qualitative assessment of cataracts (0-3 scale) (GALT-null rats [2]; day 10 of life, FIG. 2C): had cataracts
qualitative assessment of cataracts (0-3 scale) (GALT-null rats [2]; day 22 of life, placebo average severity 1.5, FIG. 2D): did not have cataracts; also recorded: cataracts were not present
galactitol levels in liver, brain and plasma (GALT-null rats [3]; day 10 of life, FIG. 3A): normal or near normal levels
galactose levels (GALT-null rats [3]; day 10 of life, FIG. 3B): did not further increase
Gal1P levels (GALT-null rats [3]; day 10 of life, FIG. 3C): did not further increase
